Measurements as given in patent US20240299300A1, “LIPOSOME VITAMIN C PREPARATION” (priority 2023, published 2024).

Tested on: H9 cells, a human T-cell line
Experiment: Vitamin C uptake in H9 T-cells
Type: cell-based
Conditions: 50 μM
Procedure: At the times indicated in FIG. 13, cells were harvested and measured for vitamin C and protein content. The cellular vitamin C levels of the cells were measured.

- cellular vitamin C level (peak) (approximately two hours): 20 nmol/mg protein
- cellular vitamin C level (fifteen minutes): 6±1.4 nmol/mg protein
Structure (SMILES): O=C1O[C@H]([C@@H](O)CO)C(O)=C1O [nonliposomal vitamin C, ascorbic acid]
